Assay results taken from PubChem BioAssay AID1963851 (Molecular Pharmacology Branch, DTP, NCI, 2024).

Tested on: 188146-221-R-J1-PDC complex spheroid viability
Test: Anticancer human tumor 188146-221-R-J1-PDC patient-derived colon adenocarcinoma cell line growth inhibition [POLQ]
Conditions: for IC50: curve of first compound; for viability, T/C: stronger effect = lower value; active means viability on the fitted dose curve at most 10% of control; inactive means the rest
Procedure, shortened: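 Growth inhibition in 3D: complex spheroids (tumor PDC, HUVEC, MSC) treated with POLQ inhibitor combinations; where Cmax unknown, highest tested concentration 10 microM, except SN-38 at 1 microM.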

[1] = second compound 0.0316 µM, first compound 0.0316 µM
[2] = second compound 0.0316 µM, first compound 0.1 µM
[3] = second compound 0.0316 µM, first compound 0.316 µM
[4] = second compound 0.0316 µM, first compound 1 µM
[5] = second compound 0.1 µM, first compound 0.0316 µM
[6] = second compound 0.1 µM, first compound 0.1 µM
[7] = second compound 0.1 µM, first compound 0.316 µM
[8] = second compound 0.1 µM, first compound 1 µM
[9] = second compound 0.316 µM, first compound 0.0316 µM
[10] = second compound 0.316 µM, first compound 0.1 µM
[11] = second compound 0.316 µM, first compound 0.316 µM
[12] = second compound 0.316 µM, first compound 1 µM
[13] = second compound 1 µM, first compound 0.0316 µM
[14] = second compound 1 µM, first compound 0.1 µM
[15] = second compound 1 µM, first compound 0.316 µM
[16] = second compound 1 µM, first compound 1 µM
[17] = second compound 3.16 µM, first compound 0.0316 µM
[18] = second compound 3.16 µM, first compound 0.1 µM
[19] = second compound 3.16 µM, first compound 0.316 µM
[20] = second compound 3.16 µM, first compound 1 µM
[21] = second compound 10 µM, first compound 0.0316 µM
[22] = second compound 10 µM, first compound 0.1 µM
[23] = second compound 10 µM, first compound 0.316 µM
[24] = second compound 10 µM, first compound 1 µM
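Further: spheroids exposed to compounds for seven days.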
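Wherever viability, T/C is given: 100% = DMSO vehicle control viability.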

CNCc1ccc(-c2[nH]c3cc(F)cc4c3c2CCNC4=O)cc1 + Cc1cccc(N(C)C(=O)C2C(O)CCN2c2nc(C)cc(C(F)(F)F)c2C#N)c1
inactive: viability, T/C [1] 98.6% | viability, T/C [2] 103% | viability, T/C [3] 101% | viability, T/C [4] 97.3% | viability, T/C (second compound 0.0316 µM, first compound 3.16 µM) 114% | viability, T/C (second compound 0.0316 µM, first compound 10 µM) 105% | viability, T/C [5] 108% | viability, T/C [6] 98.6% | viability, T/C [7] 102% | viability, T/C [8] 104% | viability, T/C (second compound 0.1 µM, first compound 3.16 µM) 108% | viability, T/C (second compound 0.1 µM, first compound 10 µM) 112% | viability, T/C [9] 112% | viability, T/C [10] 105% | viability, T/C [11] 106% | viability, T/C [12] 103% | viability, T/C (second compound 0.316 µM, first compound 3.16 µM) 106% | viability, T/C (second compound 0.316 µM, first compound 10 µM) 108% | viability, T/C [13] 109% | viability, T/C [14] 103% | viability, T/C [15] 97.7% | viability, T/C [16] 109% | viability, T/C (second compound 1 µM, first compound 3.16 µM) 100% | viability, T/C (second compound 1 µM, first compound 10 µM) 110% | viability, T/C [17] 112% | viability, T/C [18] 112% | viability, T/C [19] 95.1% | viability, T/C [20] 84.1% | viability, T/C (second compound 3.16 µM, first compound 3.16 µM) 112% | viability, T/C (second compound 3.16 µM, first compound 10 µM) 110% | viability, T/C [21] 99.4% | viability, T/C [22] 83.2% | viability, T/C [23] 100% | viability, T/C [24] 93.8% | viability, T/C (second compound 10 µM, first compound 3.16 µM) 106% | viability, T/C (second compound 10 µM, first compound 10 µM) 101%
> 10 µM: IC50 (second compound 0.0316 µM) | IC50 (second compound 0.1 µM) | IC50 (second compound 0.316 µM) | IC50 (second compound 1 µM) | IC50 (second compound 3.16 µM) | IC50 (second compound 10 µM)

CCc1c2c(nc3ccc(O)cc13)-c1cc3c(c(=O)n1C2)COC(=O)[C@]3(O)CC + Nc1ccc(C#CCN(C(=O)Cc2ncc(C(F)(F)F)cc2C(F)(F)F)c2ccc(F)cc2)nn1
active: viability, T/C [4] 7.87% | viability, T/C [12] 8.23%
0.0251 µM: IC50 (second compound 0.1 µM)
0.0198 µM: IC50 (second compound 0.0316 µM)
0.0207 µM: IC50 (second compound 0.316 µM)
0.0265 µM: IC50 (second compound 3.16 µM)
inactive: viability, T/C (second compound 0.0316 µM, first compound 0.00316 µM) 94.7% | viability, T/C (second compound 0.0316 µM, first compound 0.01 µM) 69.8% | viability, T/C [1] 35% | viability, T/C [2] 20.9% | viability, T/C [3] 12.5% | viability, T/C (second compound 0.1 µM, first compound 0.00316 µM) 101% | viability, T/C (second compound 0.1 µM, first compound 0.01 µM) 81.1% | viability, T/C [5] 42.1% | viability, T/C [6] 18.5% | viability, T/C [7] 13.3% | viability, T/C [8] 10.1% | viability, T/C (second compound 0.316 µM, first compound 0.00316 µM) 100% | viability, T/C (second compound 0.316 µM, first compound 0.01 µM) 73.1% | viability, T/C [9] 35.9% | viability, T/C [10] 18.3% | viability, T/C [11] 12.4% | viability, T/C (second compound 1 µM, first compound 0.00316 µM) 88.9% | viability, T/C (second compound 1 µM, first compound 0.01 µM) 77.8% | viability, T/C [13] 37.7% | viability, T/C [14] 22.3% | viability, T/C [15] 13.7% | viability, T/C [16] 8.08% | viability, T/C (second compound 3.16 µM, first compound 0.00316 µM) 90.5% | viability, T/C (second compound 3.16 µM, first compound 0.01 µM) 89.7% | viability, T/C [17] 42.2% | viability, T/C [18] 19.3% | viability, T/C [19] 12.6% | viability, T/C [20] 8.98% | viability, T/C (second compound 10 µM, first compound 0.00316 µM) 98.6% | viability, T/C (second compound 10 µM, first compound 0.01 µM) 75.3% | viability, T/C [21] 38.9% | viability, T/C [22] 22.6% | viability, T/C [23] 15.7% | viability, T/C [24] 8.14%
0.0232 µM: IC50 (second compound 1 µM) | IC50 (second compound 10 µM)
